{"source": "ChEMBL document CHEMBL1201862", "about": "“PubChem BioAssay data set” (2004)", "key": {"Insulin-degrading enzyme": {"molecular_target": "T1, Insulin-degrading enzyme (Homo sapiens, UniProt P14735)", "T1 sequence (P14735 whole entry)": "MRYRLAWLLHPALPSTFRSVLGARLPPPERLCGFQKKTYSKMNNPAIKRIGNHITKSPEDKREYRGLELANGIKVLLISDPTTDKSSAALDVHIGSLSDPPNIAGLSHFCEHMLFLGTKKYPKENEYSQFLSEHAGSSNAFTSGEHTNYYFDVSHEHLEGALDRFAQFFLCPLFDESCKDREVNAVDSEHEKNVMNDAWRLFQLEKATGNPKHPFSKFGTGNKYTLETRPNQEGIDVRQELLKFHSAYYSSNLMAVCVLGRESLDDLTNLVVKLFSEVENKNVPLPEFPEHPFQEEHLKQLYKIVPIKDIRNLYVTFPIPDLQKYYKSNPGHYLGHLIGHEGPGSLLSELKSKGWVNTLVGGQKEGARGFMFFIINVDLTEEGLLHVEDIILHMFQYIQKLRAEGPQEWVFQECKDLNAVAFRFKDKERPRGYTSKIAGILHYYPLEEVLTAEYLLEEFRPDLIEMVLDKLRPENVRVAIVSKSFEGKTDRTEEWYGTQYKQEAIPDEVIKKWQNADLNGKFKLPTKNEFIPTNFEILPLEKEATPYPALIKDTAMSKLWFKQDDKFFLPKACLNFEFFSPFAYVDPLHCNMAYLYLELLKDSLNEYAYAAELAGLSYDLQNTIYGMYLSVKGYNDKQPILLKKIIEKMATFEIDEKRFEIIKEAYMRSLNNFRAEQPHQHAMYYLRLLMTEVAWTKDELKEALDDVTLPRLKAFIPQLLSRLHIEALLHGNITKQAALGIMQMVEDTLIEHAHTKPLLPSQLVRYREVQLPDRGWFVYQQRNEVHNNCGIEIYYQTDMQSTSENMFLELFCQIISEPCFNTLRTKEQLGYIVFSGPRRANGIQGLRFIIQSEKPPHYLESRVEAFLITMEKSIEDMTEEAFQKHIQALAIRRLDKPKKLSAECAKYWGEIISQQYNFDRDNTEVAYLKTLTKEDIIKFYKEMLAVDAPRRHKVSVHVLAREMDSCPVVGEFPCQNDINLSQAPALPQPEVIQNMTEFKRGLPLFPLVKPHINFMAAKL", "test": "activators of endogenous IDE in HEK cells, dose response, cell-based, fluorescence polarization (AID 588439)", "assay_type": "functional"}, "[1]": {"molecular_target": "ATP-dependent molecular chaperone HSP82 (Candida albicans (strain WO-1) (Yeast), UniProt C4YTQ8)", "sequence (C4YTQ8 whole entry)": "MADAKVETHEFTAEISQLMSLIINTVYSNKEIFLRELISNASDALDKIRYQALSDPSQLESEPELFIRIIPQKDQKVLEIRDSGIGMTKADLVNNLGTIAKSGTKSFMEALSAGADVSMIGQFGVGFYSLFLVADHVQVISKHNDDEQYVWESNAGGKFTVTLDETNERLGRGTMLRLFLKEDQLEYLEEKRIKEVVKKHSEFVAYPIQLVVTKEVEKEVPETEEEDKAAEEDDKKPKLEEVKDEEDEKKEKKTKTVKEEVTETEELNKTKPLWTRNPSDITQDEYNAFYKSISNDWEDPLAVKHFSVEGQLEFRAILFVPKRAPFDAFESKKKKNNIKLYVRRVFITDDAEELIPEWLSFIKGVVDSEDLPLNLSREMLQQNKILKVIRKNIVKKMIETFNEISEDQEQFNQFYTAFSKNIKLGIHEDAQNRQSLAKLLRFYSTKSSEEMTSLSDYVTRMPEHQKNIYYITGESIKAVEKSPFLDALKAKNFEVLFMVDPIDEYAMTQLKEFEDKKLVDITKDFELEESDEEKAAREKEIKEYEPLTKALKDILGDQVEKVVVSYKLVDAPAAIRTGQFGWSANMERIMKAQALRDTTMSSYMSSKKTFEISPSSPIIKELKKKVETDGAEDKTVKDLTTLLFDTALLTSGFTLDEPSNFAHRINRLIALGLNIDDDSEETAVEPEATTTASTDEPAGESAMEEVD", "test": "loss of DOC-induced GRE-beta-galactosidase reporter signal, dose response, Hsp90 inhibitor project, S. cerevisiae, luminescence (AID 2400);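 note: beta-galactosidase luminescence from glucocorticoid response element reporter as proxy for Hsp90 function; inhibitor potency where signal loss means Hsp90 inhibition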", "assay_type": "functional, cell-based"}, "Cysteine protease ATG4B": {"molecular_target": "T2, Cysteine protease ATG4B (Homo sapiens, UniProt Q9Y4P1)", "T2 sequence (Q9Y4P1 whole entry)": "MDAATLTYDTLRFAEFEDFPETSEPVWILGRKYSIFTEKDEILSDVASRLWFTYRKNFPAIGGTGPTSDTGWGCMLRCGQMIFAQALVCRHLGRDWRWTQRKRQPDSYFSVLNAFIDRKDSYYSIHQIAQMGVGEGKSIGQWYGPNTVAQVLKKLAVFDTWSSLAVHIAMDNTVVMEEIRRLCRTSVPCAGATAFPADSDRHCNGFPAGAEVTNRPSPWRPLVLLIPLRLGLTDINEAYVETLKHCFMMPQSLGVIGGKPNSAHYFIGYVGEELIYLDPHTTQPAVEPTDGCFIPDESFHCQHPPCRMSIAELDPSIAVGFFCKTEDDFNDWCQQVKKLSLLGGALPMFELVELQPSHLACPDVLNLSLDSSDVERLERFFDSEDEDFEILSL", "assay_type": "functional"}, "[2]": {"test": "inhibitors of intracellular T. cruzi replication, confirmation, NIH3T3 host cells, beta-gal luminescence (AID 2044);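 note: intracellular parasites grown in NIH/3T3 mouse fibroblasts as host cells; luminescent beta-galactosidase reporter signal from transgenic T. cruzi replicating inside host cells; inhibitors lower the luminescence signal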", "assay_type": "functional, cell-based"}, "[3]": {"test": "miR-122 activators in hepatoma reporter cells, dose response, cell-based, Huh7 psiCHECK-miR122, Renilla luciferase, cherry-picked (AID 651956);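 note: huh7 hepatoma cells stably carrying a psiCHECK-2 miR-122 sensor plasmid; renilla luciferase signal reporting endogenous miR-122 activity after 48 h compound exposure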", "assay_type": "functional"}, "[4]": {"test": "Counterscreen for AddAB inhibitors: absorbance-based bacterial cell-based high throughput dose response assay for inhibitors of bacterial viability. [Related pubchem assays (depositor defined):AID435030, AID449728, AID449731, AID488942, AID488955, AID488956]", "assay_type": "functional"}, "[5]": {"test": "HEK293T cytotoxicity, dose response, cytotoxicity control for miR-122 modulator project, cell-based, inhibitor set, cherry-pick, set 2 (AID 720697)", "assay_type": "functional"}, "Streptokinase A": {"molecular_target": "T3, Streptokinase A (Streptococcus pyogenes serotype M1, UniProt P10520)", "T3 sequence (P10520 whole entry)": "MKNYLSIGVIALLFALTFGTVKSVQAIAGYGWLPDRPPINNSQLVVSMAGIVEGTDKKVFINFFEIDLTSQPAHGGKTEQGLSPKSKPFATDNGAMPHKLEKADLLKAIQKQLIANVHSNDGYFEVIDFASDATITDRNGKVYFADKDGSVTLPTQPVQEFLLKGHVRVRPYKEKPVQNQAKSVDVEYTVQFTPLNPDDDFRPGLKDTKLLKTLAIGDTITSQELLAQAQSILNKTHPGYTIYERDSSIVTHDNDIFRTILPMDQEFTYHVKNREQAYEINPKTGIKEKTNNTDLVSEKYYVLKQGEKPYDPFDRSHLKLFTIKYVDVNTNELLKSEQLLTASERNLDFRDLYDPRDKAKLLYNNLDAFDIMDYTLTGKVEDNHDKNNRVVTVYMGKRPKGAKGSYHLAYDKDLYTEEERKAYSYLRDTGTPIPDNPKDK", "test": "S. pyogenes streptokinase expression inhibitors, potency, dose response, plasminogen activation absorbance, OD405 (AID 1914);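 note: secreted streptokinase activity via plasminogen activation per viability signal from cell pellet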", "assay_type": "functional, Streptococcus pyogenes M1 GAS"}, "[6]": {"test": "C. albicans growth with fluconazole, confirmation, fluorescence, retest (AID 2467)", "assay_type": "functional, cell-based"}, "Phospholipase A2": {"molecular_target": "Phospholipase A2 (Homo sapiens, UniProt P04054)", "sequence (P04054 whole entry)": "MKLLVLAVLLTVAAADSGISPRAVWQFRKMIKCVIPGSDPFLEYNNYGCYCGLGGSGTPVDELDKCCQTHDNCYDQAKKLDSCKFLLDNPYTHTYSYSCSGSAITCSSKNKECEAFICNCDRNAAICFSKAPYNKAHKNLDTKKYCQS", "test": "PLA2 enzyme inhibitors, dose response, counter-screen for ATG4B inhibitor project, biochemical, set 2 (AID 588586)", "assay_type": "functional"}, "[7]": {"tested_on": "Streptococcus sp. 'group A'", "test": "growth inhibition of control SK(-) GAS strain, dose response, counter-screen for streptokinase expression inhibitor project, luminescence, kanamycin, BacTiterGlo, confirmation (AID 1900)", "assay_type": "functional, organism-based"}, "HEK293": {"tested_on": "HEK293", "test": "inhibitors of LMP1-driven NF-kB reporter, dose response, cell-based, HEK293, luciferase, cherry-pick (AID 588343)", "assay_type": "functional", "details": "Homo sapiens"}, "[8]": {"molecular_target": "Guanyl-specific ribonuclease T1 (Aspergillus oryzae (strain ATCC 42149 / RIB 40), UniProt P00651)", "sequence (P00651 whole entry)": "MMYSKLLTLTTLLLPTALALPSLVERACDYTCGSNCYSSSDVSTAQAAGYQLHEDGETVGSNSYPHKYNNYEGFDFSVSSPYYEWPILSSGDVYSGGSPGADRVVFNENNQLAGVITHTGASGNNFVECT", "test": "RNase T1 inhibitors, dose response, counter-screen for TPT1 inhibitor project, biochemical, fluorescence polarization, 1536-well (AID 2167)"}, "Cytochrome P450 3A4": {"molecular_target": "Cytochrome P450 3A4 (Homo sapiens, UniProt P08684)", "sequence (P08684 whole entry)": "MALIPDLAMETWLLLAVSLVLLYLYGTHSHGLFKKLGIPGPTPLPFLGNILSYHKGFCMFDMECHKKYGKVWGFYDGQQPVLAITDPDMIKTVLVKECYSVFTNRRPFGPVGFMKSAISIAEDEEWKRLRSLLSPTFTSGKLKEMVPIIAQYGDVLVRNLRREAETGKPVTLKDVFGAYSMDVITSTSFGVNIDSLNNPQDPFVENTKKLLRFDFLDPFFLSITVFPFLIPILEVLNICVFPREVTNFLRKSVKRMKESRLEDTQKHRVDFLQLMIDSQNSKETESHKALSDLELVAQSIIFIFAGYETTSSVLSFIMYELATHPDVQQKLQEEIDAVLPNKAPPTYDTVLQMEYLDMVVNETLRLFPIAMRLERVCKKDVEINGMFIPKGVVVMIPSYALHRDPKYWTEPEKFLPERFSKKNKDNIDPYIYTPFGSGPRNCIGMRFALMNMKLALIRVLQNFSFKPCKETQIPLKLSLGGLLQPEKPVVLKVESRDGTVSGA"}, "[9]": {"molecular_target": "Induced myeloid leukemia cell differentiation protein Mcl-1 (Homo sapiens, UniProt Q07820)", "sequence (Q07820 whole entry)": "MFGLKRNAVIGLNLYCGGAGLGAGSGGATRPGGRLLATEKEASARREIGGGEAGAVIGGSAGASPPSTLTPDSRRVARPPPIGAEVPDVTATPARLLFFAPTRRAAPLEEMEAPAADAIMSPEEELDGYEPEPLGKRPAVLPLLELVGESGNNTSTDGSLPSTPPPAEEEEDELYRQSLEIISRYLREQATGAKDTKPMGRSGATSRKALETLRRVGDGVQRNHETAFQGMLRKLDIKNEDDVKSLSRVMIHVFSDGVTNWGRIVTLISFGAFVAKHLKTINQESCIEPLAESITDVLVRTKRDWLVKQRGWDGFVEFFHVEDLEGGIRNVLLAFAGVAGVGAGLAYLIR", "assay_type": "functional"}}, "note": "The source made the active and inactive calls."}
{"smiles": "O=C1CCN2C=Nc3cccc4ccc1c2c34", "values": [{"measurement": "EC50", "setting": "Insulin-degrading enzyme", "result": "> 54.7 µM (inactive)"}]}
{"smiles": "Oc1ccc2ccccc2c1/C=N/Nc1nnc(-c2ncc[nH]2)c2ccccc12", "values": [{"measurement": "EC50", "setting": "[1]", "result": "3.23 µM (active)"}, {"measurement": "IC50", "setting": "Cysteine protease ATG4B", "result": "2.53 µM (active)"}, {"measurement": "EC50", "setting": "[2]", "result": "0.412 µM (active)"}, {"measurement": "AC50", "setting": "[3]", "result": "37.6 µM (active)"}, {"measurement": "IC50", "setting": "[4]", "result": "> 119 µM (inactive)"}, {"measurement": "AC50", "setting": "[5]", "result": "2.19 µM (active)"}, {"measurement": "EC50", "setting": "Streptokinase A", "result": "5.52 µM (active)"}, {"measurement": "EC50", "setting": "[6]", "result": "0.714 µM (active)"}, {"measurement": "IC50", "setting": "Phospholipase A2", "result": "2.47 µM (active)"}, {"measurement": "EC50", "setting": "[7]", "result": "1.98 µM (active)"}, {"measurement": "AC50", "setting": "HEK293", "result": "1.79 µM (active)"}]}
{"smiles": "CC(C)C(C(=O)O)N1C(=O)/C(=C/C=C/c2ccco2)SC1=S", "note": "(stereo not given)", "values": [{"measurement": "IC50", "setting": "[8]", "result": "9.85 µM (active)"}, {"measurement": "AC50", "setting": "Cytochrome P450 3A4", "result": "31.6 µM (inconclusive)"}, {"measurement": "IC50", "setting": "[9]", "result": "> 54 µM (active)"}]}
